# Assays:
# [1] = tested on: BM-induced experimental pulmonary fibrosis in mice; conditions: mouse, in vivo
# Description: Studies were also performed to determine if macrophages in pulmonary fibrotic lungs might be specifically targeted with folate-linked drugs in vivo. […] (The BM model is widely regarded to be helpful in terms of enabling mechanistic investigations relevant to fibrogenesis in an in vivo context.)
# More specifically, eight-week-old C57BL6 male mice from Charles River (average weight 22 g to 25 g) were housed under pathogen-free conditions at room temperature (22° C.) under a 12 hours light-dark cycle. Mice were placed on a folate deficient chow (Envigo Teklad Global Rat Food Pellets) for 1 week prior to the BM or PBS instillation. Fresh water and folate-deficient diet were freely available. All animal procedures were approved by the Purdue Animal Care and Use Committee in accordance with National Institute of Health guidelines.
# Thereafter, the mice were anesthetized with ketamine/xylazine and the necks of the mice were shaved using hair remover lotion and then sterilized with 70% alcohol. A small incision was made on the neck to visualize the trachea. Mice were positioned at a 75-degree angle and injected intratracheally with 100 μL sterile PBS or BM (Cayman Chemicals, Ann Arbor, MI; #13877) dissolved in PBS (0.75 mg/kg) using a 1 cc syringe with 26 G needle. Body weights were monitored every other day throughout the experiment.
# Lobes of the right lung collected above were weighed, placed in a pressure-tight vial (Supelco Inc., Bellefonte, PA; #27003), and hydrolyzed with 6N HCl (10 ml/g, v/w) in a sand bath at 120° C. for 3.5 hours. The hydrolyzed solution was cooled at 4° C. for 15 min and transferred to a 1.5 ml Eppendorf tube prior to centrifugation at 12,000 rcf for 15 min at 4° C. Supernatant was carefully collected, aliquoted and used for hydroxyproline (HYP) analysis.
# For the subsequent HYP analysis, 10 μl of sample was transferred into a 96-well plate and neutralized with 10 μl of 5.3 M sodium hydroxide solution. Isopropanol (40 μl) was then added to each well followed by 20 μl of oxidation buffer and the mixture was incubated on a shaker at room temperature for 5 min. Analytical reagent (260 μl) was added, and the plate was incubated on a shaker at room temperature for 30 seconds and incubated immediately at 60° C. for 25 min. The absorbance was measured at 560 nm (A560) within 15 min. All reagents were prepared according to a previously reported protocol.
# For histological analysis of the lung sections, fixed lungs (see above) were embedded in paraffin, sectioned and stained with hematoxylin-eosin (H&E), Masson's trichrome or F3 (anti-mouse FRβ antibody). Tissue sections were examined in a blinded manner by a licensed pathologist. More than 90×10^6 cells were quantified per section using Aperio-Image Scope (Leica Biosystems, Wetzlar, DE).
# For this, BM-treated mice were intravenously injected every other day beginning on day 10 with either vehicle (3% DMSO in PBS) or Compound 1B (see FIG. 8A). […] In BM-induced experimental pulmonary fibrosis in mice, inflammation is known to persist for about 9-10 days after BM installation. Because, inflammation to fibrosis switch happens in this model approximately day 9 to day 14, and profibrotic markers start appearing at about day 10, dosing began on day 10 (FIG. 8A).
# Two doses were given every other day till day 21. The individual doses on a day are separated by 6 hours to prevent any “tolerance” to TLR agonists. Mice were then sacrificed on day 21 and subjected immediately to bronchoalveolar lavage followed by resection of the lungs for immunohistochemistry and quantitation of collagen and hydroxyproline.
# [2] = tested on: M2-induced THP-1 macrophages; assay: Secreted CCL18 and IL-1β in THP-1 supernatants by ELISA; assay type: cell-based, human; conditions: THP-1 cells of FIGS. 14A-14C, low concentration range (0.1-10 nM)
# [3] = tested on: THP-1 cells polarized to M2-like macrophages; assay: Reprogramming of M2-like THP-1 macrophages, marker gene analysis by qPCR; assay type: cell-based, human; conditions: M2-induced THP-1, 2 hours, qPCR
# Description: THP-1 cells were seeded into 96-well plates at a density of 60,000 cells/well. Cells were differentiated into unpolarized macrophages by 48 hours incubation with 200 nM PMA followed by 24 hours incubation in fresh RPMI medium. […] Cultures were maintained at 37° C. in a humidified 5% CO2 incubator.
# Total RNA was isolated from 1×10^5 —2×10^5 macrophages using a Quick-RNA™ MicroPrep kit (Zymo Research, Irvine, CA) according to the manufacturer-recommended protocol. […] IL-6, CXCL10, IFNα, IFN-γ and CD86 were used as markers for an M1 phenotype, while CCL18, CD206, CD163 and Arg1 were employed as markers for the M2 phenotype. IL-1β, PDGFβ, MMP9 and TIMP 3 were measured as indicators of a profibrotic phenotype. IRAK-4 was used as an indicator of TLR7 stimulation. To control for specificity of the amplification products, a melting curve analysis was performed. […] Each sample was analyzed independently in triplicate for each marker.
# Primarily, human monocytic (THP-1) cells were induced to the M2-like phenotype using the methods and materials previously described. In particular, THP-1 cells were seeded into 96-well plates at a density of 60,000 cells/well. Cells were differentiated into unpolarized macrophages by 48 h incubation with 200 nM PMA followed by 24 hours incubation in fresh RPMI medium. The resulting macrophages were polarized to an M2-like phenotype by incubation with 20 ng/ml IL-4, 20 ng/ml IL-13, and 5 ng/mL IL-6 for 48 h. Cultures were maintained at 37° C. in a humidified 5% CO2 incubator.
# In addition to the nonconjugated TLR7 agonist, conjugated compounds of the present disclosure were likewise evaluated. […] The cells were subsequently harvested for gene analysis by qPCR and the relative expression of CCL18 (FIG. 14A), CD206 (FIG. 14B), and IL-1β (FIG. 14C) analyzed.
# [4] = target: T1, FRβ (Mus musculus, UniProt Q05685); conditions: in vivo
# T1 construct: from tissue; host or cells: major organs (heart, lung, spleen, liver, small intestine, large intestine, kidney) of bleomycin- or PBS-treated C57BL/6 mice; FRβ-expressing lung macrophages
# Description: FIGS. 7C and 7D show FRβ IHC staining of human IPF lung tissue (FIG. 7C) and healthy human lung tissue (FIG. 7D). […] After 2 hours, mice were sacrificed prior to analysis.
# [5] = tested on: FRβ positive macrophages; conditions: mouse, in vivo
# Description: To evaluate if profibrotic lung macrophages in these mice can be specifically targeted with folate-linked drugs, 10 days after the instillation, 10 nmol (for in vivo imaging) or 100 nmol (for in vivo labeling) of a folate-linked, near infrared fluorescent dye (OTL38) with or without 200-fold excess of FA-glucosamine (a competitor of OTL38) was injected into the tail veins of BM-treated mice and the dye uptake in the major organs was evaluated.
# Finally, for the in vivo folate imaging studies, major organs (heart, lung, spleen, liver, small intestine, large intestine, and kidney) were resected and imaged using an AMI live imager (Spectral Instruments Imaging, Tucson, AZ). For in vivo folate receptor labeling studies, lungs of the mice were harvested immediately following euthanasia, digested with a lung dissociation kit (Miltenyi Biotec, Bergisch Gladbach, DE; #130-098-427) as described by gentleMACS Octo Dissociator with Heathers (Miltenyi Biotec, Bergisch Gladbach, DE; #130-096-427) as described by manual and filtered through a 70 μm cell strainer (Miltenyi Biotec, Bergisch Gladbach, DE; #130-098-462). […] Labeled macrophages were then washed twice in PBS, stained with 7AAD (viability stain) for 15 min and analyzed by flow cytometry using BD Accuri C6 Software (BD Biosciences, San Jose, CA). […]
# T1 sequence (Q05685 21-227): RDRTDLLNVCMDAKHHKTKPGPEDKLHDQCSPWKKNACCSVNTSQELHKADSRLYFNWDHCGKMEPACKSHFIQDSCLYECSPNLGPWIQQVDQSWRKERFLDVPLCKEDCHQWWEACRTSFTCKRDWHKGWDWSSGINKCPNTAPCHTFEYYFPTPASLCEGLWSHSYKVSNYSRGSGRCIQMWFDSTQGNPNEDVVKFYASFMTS
compound,measurement,setting,value
"CCCCc1nc2c(N)nc3ccccc3c2n1CC(C)(C)O [Compound 1A, 1-(4-Amino-2-butyl-1H-imidazo[4,5-c]quinolin-1-yl)-2-methylpropan-2-ol]",body weight change,[1],rapid body weight loss followed by death
Nc1nc(C(F)(F)F)cc2c1[nH]c(=O)n2Cc1ccc(NCCN2CCCC(CO)C2)nc1 (centres unmarked) [Compound 3A],secretion of CCL18 protein,[2],downregulated
Nc1nc2ncc(CNc3ccc(C(=O)NC(CCC(=O)N[C@@H](CSSCCOC(=O)OCC4CCCN(CCNc5ccc(Cn6c(=O)[nH]c7c(N)nc(C(F)(F)F)cc76)cn5)C4)C(=O)O)C(=O)O)cc3)nc2c(=O)[nH]1 (some centres unmarked) [Compound 3B],CCL18 relative expression,[3],reduced
same,CD206 relative expression,[3],reduced
same,IL-1β relative expression,[3],reduced
same,secretion of CCL18 protein,[2],downregulated
Nc1nc2ncc(CNc3ccc(C(=O)N[C@@H](CCC(=O)NCCOCCOCCOCCOCCOCCOCCOCCOCCOCCOCCOCCOCCOCC4CCCN(CCNc5ccc(Cn6c(=O)[nH]c7c(N)nc(C(F)(F)F)cc76)cn5)C4)C(=O)O)cc3)nc2c(=O)[nH]1 (some centres unmarked) [Compound 3C],CCL18 relative expression,[3],reduced
same,CD206 relative expression,[3],reduced
same,IL-1β relative expression,[3],reduced
same,effectiveness in reducing profibrotic markers relative to the other compounds,[3],most effective relative to the other compounds
same,benefit to the subject mice,[1],did not show measurable benefit
same,hydroxyproline (HP),[1],decreasing
same,number of BALF cells,[1],decreasing
same,survival rates,[1],increased the survival rates
same,secretion of CCL18 protein,[2],downregulated
Nc1nc2ncc(CNc3ccc(C(=O)N[C@@H](CCC(=O)NCCOCCOCCOCCOCC4CCCN(CCNc5ccc(Cn6c(=O)[nH]c7c(N)nc(C(F)(F)F)cc76)cn5)C4)C(=O)O)cc3)nc2c(=O)[nH]1 (some centres unmarked) [Compound 3D],CCL18 relative expression,[3],reduced
same,CD206 relative expression,[3],reduced
same,IL-1β relative expression,[3],reduced
same,effectiveness in reducing profibrotic markers relative to the other compounds,[3],most effective relative to the other compounds
same,secretion of CCL18 protein,[2],downregulated
OTL38,OTL38 fluorescence in organs of healthy mice,[4],only observed in the kidneys
same,lung accumulation with 200-fold excess folate-glucosamine,[4],nearly quantitative blockade of lung accumulation
same,folate-dye retention with 200-fold excess folate-glucosamine,[5],blocked essentially all folate-dye retention
